Data as given in ChEMBL document CHEMBL3580563, “Kaempulchraols A-H, Diterpenoids from the Rhizomes of Kaempferia pulchra Collected in Myanmar” (J Nat Prod, 2015).

Key:
Assay type in all cases: functional, cell-based
PSN1 = test: Antiproliferative activity against human PSN1 cells after 72 hrs by WST8 assay; details: PSN1, 72 h
[1] = Antiproliferative activity against human TIG3 cells after 72 hrs by WST8 assay; details: TIG-3, 72 h
A549 = test: Antiproliferative activity against human A549 cells after 72 hrs by WST8 assay; details: A549, 72 h
[2] = Antiproliferative activity against human PANC1 cells after 72 hrs by WST8 assay; details: PANC-1, 72 h
MDA-MB-231 = test: Antiproliferative activity against human MDA-MB-231 cells after 72 hrs by WST8 assay; details: MDA-MB-231, 72 h

Structure (SMILES) | IC50 (PSN1) | IC50 [1] | IC50 (A549) | IC50 [2] | IC50 (MDA-MB-231)
C=C[C@]1(C)C=C2CC[C@H]3C(C)(C)[C@H](O)C[C@H](O)[C@]3(C)[C@H]2CC1 | 12.3 µM | – | – | – | –
O=c1[nH]cc(F)c(=O)[nH]1 [FLUOROURACIL] | 4.4 µM | 8.4 µM | 2.8 µM | 3.7 µM | 5.2 µM
